Test results from paper PMC6197744, “Triazolo[4,5-d]pyrimidines as Validated General Control Nonderepressible 2 (GCN2) Protein Kinase Inhibitors Reduce Growth of Leukemia Cells” (Computational and Structural Biotechnology Journal, 2018).
pIC50: −log10 of the molar value. In brackets after ≈: the same amount, converted by molar mass. Where two headings read alike, the source gives them in different places.

Legend:
GCN2 = system: GCN2; parameters: method as in PMID 25587754; details: biochemical inhibition of kinase activity; cited from earlier work
human GCN2 = target: T1, human GCN2 (Homo sapiens, UniProt Q9P2K8); assay: radiometric HotSpot kinase assay; assay type: biochemical; details: ATP at the ATP Km of GCN2; means of two independent experiments
T1 construct: purchased Reaction Biology Corporation (Malvern, PA)
Procedure: (§1) Compounds 1–9 were screened in a radiometric […] kinase assay against human GCN2 and other kinases involved in the UPR and ISR pathways (Table 1). […] The most soluble of the potent tool compounds (1 and 2) were selected for in vitro cell-based assays where the phosphorylation of eIF2α (p-eIF2α) was used as a readout for GCN2 inhibition.
(§2) In vitro compound profiling for recombinant GCN2, PERK, HRI, PKR, or IRE1 kinases were performed at Reaction Biology Corporation (Malvern, PA) using the HotSpot kinase assay. Briefly, all compounds provided for testing were dissolved in 10 mM DMSO stock solutions. Serial dilutions were conducted by epMotion 5070 in DMSO. Specific kinase/substrate mixtures and required cofactors were prepared in reaction buffer (20 mM Hepes (pH 7.5), 10 mM MgCl2, 1 mM EGTA, 0.02% Brij35, 0.02 mg/ml BSA, 0.1 mM Na3VO4, 2 mM DTT, 1% DMSO). Compounds were added to the kinase reaction mixture by Acoustic technology (Echo550; nanoliter range) and incubated for 20 min at room temperature. The kinase reaction was initiated by adding ^33P ATP to a final concentration of 10 μM for single point kinase activity reading or to the ATP Km of GCN2 for IC50 readings. The reaction was incubated or 2 h at room temperature and kinase activity was detected by filter-binding method. IC50 values and curves were generated with GraphPad Prism 7 (GraphPad software).

PERK = target: T2, PERK (Homo sapiens, UniProt Q9NZJ5); assay: radiometric HotSpot kinase assay; assay type: biochemical; details: read-out: % Enzyme inhibition at 10 μM, PERK
T2 construct: purchased Reaction Biology Corporation (Malvern, PA)
T2 sequence (Q9NZJ5 30-1116): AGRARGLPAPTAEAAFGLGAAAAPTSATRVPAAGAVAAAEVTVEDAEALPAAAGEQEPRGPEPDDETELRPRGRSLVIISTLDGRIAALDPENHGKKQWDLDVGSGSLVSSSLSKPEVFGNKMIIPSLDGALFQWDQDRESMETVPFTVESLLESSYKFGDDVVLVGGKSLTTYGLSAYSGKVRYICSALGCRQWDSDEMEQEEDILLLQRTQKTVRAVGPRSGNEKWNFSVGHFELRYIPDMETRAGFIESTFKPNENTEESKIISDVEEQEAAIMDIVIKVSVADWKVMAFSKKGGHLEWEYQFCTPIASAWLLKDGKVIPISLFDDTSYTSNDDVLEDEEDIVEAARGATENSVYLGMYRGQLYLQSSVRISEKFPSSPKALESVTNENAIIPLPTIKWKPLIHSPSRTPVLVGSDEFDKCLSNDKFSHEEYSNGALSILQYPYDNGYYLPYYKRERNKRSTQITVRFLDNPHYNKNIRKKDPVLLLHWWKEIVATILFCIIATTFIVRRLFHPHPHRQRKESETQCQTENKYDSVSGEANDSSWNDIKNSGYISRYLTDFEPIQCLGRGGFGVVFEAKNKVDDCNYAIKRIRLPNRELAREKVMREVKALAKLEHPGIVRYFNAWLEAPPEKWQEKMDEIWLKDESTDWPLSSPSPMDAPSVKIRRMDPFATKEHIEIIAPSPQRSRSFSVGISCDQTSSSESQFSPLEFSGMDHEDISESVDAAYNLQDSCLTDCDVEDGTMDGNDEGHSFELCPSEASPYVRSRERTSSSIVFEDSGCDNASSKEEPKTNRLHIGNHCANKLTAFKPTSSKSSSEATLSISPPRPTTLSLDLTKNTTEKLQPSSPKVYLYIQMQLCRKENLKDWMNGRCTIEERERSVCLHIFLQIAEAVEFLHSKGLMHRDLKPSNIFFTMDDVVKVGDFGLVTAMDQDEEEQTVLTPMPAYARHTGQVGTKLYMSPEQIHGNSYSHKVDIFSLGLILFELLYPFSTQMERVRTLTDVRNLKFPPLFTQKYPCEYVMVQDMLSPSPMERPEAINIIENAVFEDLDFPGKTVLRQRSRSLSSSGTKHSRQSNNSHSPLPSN
Procedure: as §2, with “Serial dilutions were conducted by epMotion 5070 in DMSO.” left out, “The kinase reaction was initiated by adding ^33P ATP to a final concentration of 10 μM for single point kinase activity reading or to the ATP Km of GCN2 for IC50 readings.” left out

HRI = target: T3, HRI (Homo sapiens, UniProt Q9BQI3); assay: radiometric HotSpot kinase assay; assay type: biochemical; details: 10 μM compound, 10 μM ATP; read-out: % Enzyme inhibition at 10 μM, HRI
T3 construct: purchased Reaction Biology Corporation (Malvern, PA)
Procedure: as §1, §2

IRE1 = target: T4, IRE1 (Homo sapiens, UniProt O75460); assay: radiometric HotSpot kinase assay; assay type: biochemical; details: 10 μM compound, 10 μM ATP; read-out: % Enzyme inhibition at 10 μM, IRE1
T4 construct: purchased Reaction Biology Corporation (Malvern, PA)
Procedure: as §1, §2

PKR = target: T5, PKR (Homo sapiens, UniProt P19525); assay: radiometric HotSpot kinase assay; assay type: biochemical; details: 10 μM compound, 10 μM ATP; read-out: % Enzyme inhibition at 10 μM, PKR
T5 construct: purchased Reaction Biology Corporation (Malvern, PA)
Procedure: as §1, §2

Kinetic solubility assay = assay type: physicochemical; details: aqueous buffer, kinetic from dmso stock; PBS pH 7.4, 25 °C, 2 h
Procedure: Compound solubility was determined in PBS at pH 7.4 by Pharmaron, Inc. (Beijing, China). Briefly, all compounds and control solutions were prepared in DMSO at concentrations of 10 mM. Diclofenac was used as a positive control. 10 μL or 30 μL of each compound was added into a 96-well plate, followed by adding 990 μL or 970 μL, respectively, of PBS at pH 7.4. A stir stick was added to each well and wells were sealed using a molded PTDE/SIL 96-Well Plate Cover. […] After incubation the samples were transferred into the filter plate and filtered by Vacuum Manifold. The filtered samples were diluted with methanol to obtain 3 μM standards (STD). The samples were analyzed by LC-MS/MS against a standard of known concentration in DMSO. The solubility values of duplicate test compounds were calculated in Microsoft Excel using the following equation, where DF means dilution factor: Sample=AREASample×INJVOLStd×DFSample×STD/AREAStd×INJVOLSample

[1] = Permeability assay (PAMPA); assay type: in vitro ADME; details: pH 7.4, 25 °C, <10 low, >10 high permeability
Procedure: GCN2 compound permeability was determined by PAMPA and was performed by Pharmaron, Inc. (Beijing, China). All compounds and control stock solutions were prepared in DMSO at a concentration of 10 mM. Testosterone and methotrexate were used as control compounds. Compound stock solutions were diluted with PBS (pH 7.4) to a final concentration of 10 μM. A 1.8% solution (w/v) of lecithin in dodecane was prepared and sonicated to ensure a complete dissolution. 5 μL of the lecithin/dodecane mixture were pipetted into each acceptor plate well (top compartment). Immediately after the application of the artificial membrane (within 10 min), 300 μL of PBS (pH 7.4) solution were added to each well of the acceptor plate. 300 μL of drug-containing solutions were added to each well of the donor plate (bottom compartment) in triplicate. The plate lid was replaced and incubated at 25 °C, 60 rpm for 16 h. After incubation, aliquots of 50 μL from each well of acceptor and donor plate were transferred into a 96-well plate and 200 μL of methanol (containing IS: 100 nM Alprazolam, 200 nM Labetalol and 2 μM Ketoprofen) was added to each well. The plate was vortexed at 750 rpm for 100 s. Samples were centrifuged at 3220g for 20 min. The compound concentrations were determined by LC/MS/MS. The effective permeability (Pe), in units of centimeter per second were calculated using the following equation: logPe=logC×−ln1−drugacceptor/drugequilibrium

T5 sequence (P19525 whole entry): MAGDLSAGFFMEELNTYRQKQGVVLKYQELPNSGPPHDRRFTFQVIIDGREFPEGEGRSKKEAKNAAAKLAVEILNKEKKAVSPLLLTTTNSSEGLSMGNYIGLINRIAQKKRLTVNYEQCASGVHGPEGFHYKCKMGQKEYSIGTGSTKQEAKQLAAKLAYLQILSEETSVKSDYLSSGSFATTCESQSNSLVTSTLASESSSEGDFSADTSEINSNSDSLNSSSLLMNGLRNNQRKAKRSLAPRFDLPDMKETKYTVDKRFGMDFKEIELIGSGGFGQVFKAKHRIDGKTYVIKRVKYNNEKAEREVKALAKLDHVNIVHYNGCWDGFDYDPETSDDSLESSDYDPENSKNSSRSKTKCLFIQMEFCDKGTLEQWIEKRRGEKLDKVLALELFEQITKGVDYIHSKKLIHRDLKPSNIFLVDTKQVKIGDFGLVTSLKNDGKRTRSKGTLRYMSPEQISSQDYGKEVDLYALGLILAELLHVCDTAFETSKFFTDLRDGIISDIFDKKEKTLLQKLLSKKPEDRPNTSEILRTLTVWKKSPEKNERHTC
T4 sequence (O75460 19-977): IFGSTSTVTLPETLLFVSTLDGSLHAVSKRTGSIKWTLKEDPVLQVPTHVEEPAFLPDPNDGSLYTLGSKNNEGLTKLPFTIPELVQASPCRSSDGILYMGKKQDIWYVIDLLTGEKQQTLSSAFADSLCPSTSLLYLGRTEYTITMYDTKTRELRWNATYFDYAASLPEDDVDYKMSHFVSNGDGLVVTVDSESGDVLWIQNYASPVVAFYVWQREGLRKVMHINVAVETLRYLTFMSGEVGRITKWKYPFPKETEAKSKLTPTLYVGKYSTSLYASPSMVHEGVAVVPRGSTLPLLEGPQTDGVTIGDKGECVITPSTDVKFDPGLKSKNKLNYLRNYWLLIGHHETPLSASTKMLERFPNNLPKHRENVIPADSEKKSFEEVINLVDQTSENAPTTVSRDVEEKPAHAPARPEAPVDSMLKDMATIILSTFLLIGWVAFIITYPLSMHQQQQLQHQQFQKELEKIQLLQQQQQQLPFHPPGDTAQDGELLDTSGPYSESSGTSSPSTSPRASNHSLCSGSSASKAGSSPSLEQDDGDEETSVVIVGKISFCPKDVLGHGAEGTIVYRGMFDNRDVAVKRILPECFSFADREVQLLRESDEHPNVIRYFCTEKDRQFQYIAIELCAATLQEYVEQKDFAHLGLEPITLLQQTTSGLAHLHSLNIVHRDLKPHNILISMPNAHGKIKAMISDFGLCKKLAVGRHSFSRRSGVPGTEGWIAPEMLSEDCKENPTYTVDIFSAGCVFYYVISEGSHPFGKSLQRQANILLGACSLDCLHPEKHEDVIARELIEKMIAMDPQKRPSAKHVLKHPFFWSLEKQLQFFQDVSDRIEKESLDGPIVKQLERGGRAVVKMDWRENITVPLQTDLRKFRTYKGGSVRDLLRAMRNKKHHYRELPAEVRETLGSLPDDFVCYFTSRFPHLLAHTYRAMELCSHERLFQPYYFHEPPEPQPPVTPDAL
T1 sequence (Q9P2K8 whole entry): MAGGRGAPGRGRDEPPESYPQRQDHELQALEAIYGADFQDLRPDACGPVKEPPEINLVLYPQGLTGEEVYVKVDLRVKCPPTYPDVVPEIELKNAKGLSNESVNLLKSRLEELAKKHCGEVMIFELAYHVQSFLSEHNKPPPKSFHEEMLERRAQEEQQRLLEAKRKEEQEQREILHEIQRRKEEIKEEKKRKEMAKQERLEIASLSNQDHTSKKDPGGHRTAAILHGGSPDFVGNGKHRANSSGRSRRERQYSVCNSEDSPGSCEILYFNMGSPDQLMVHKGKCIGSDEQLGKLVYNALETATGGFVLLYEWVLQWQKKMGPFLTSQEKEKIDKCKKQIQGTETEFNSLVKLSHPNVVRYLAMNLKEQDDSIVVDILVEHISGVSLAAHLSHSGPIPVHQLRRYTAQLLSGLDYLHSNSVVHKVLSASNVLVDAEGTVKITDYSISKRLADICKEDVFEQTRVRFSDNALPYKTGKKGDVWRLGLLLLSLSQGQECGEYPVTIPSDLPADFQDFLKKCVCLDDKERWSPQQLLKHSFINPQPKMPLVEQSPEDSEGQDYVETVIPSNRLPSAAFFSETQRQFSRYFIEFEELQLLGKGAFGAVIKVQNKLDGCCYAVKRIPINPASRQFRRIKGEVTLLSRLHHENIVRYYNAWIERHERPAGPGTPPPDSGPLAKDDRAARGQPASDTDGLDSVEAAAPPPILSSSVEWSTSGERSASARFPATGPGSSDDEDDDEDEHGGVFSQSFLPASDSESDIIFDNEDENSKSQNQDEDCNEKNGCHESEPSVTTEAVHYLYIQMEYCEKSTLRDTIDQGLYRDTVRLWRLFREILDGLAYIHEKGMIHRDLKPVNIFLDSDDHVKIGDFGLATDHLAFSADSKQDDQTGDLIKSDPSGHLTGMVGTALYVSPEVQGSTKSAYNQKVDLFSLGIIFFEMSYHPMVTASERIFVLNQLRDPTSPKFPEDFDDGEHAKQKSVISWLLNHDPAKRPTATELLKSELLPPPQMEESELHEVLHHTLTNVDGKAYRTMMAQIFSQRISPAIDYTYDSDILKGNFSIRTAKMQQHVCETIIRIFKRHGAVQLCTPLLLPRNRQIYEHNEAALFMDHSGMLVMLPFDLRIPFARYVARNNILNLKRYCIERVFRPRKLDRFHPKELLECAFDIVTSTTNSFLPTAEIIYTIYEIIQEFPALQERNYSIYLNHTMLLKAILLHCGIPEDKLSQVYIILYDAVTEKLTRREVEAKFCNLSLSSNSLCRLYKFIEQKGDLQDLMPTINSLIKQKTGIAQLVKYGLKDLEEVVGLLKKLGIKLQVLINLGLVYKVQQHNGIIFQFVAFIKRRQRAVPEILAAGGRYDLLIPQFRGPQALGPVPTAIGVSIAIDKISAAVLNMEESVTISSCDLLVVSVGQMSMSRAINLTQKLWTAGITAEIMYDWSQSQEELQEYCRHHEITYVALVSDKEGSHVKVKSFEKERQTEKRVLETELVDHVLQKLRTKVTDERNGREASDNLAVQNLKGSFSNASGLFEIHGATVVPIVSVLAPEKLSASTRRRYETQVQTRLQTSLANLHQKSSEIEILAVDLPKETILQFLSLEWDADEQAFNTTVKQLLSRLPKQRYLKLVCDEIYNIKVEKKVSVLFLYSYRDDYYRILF
T3 sequence (Q9BQI3 whole entry): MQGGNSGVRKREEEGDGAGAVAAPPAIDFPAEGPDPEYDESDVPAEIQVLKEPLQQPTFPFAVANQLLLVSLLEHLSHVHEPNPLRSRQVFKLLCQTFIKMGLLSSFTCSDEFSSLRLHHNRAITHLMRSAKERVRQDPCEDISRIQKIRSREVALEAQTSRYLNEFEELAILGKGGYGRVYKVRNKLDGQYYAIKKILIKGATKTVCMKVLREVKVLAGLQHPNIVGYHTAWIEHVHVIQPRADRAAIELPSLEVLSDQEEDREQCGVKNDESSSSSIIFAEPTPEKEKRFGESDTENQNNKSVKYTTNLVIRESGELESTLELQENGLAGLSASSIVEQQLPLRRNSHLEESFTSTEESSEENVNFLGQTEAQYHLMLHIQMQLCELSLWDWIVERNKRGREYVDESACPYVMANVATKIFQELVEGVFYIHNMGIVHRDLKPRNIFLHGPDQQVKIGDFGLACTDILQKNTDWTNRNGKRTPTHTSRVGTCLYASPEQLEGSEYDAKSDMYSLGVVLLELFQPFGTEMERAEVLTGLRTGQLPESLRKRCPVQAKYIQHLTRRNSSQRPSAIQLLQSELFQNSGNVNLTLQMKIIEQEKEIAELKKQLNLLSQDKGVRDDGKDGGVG

Compound | pIC50 (human GCN2) | inhibition at 10 µM (PERK; 10 μM compound, 10 μM ATP) [%] | inhibition at 10 µM (HRI) [%] | inhibition at 10 µM (IRE1) [%] | inhibition at 10 µM (PKR) [%] | solubility at 2 h (Kinetic solubility assay) [µM] | Papp at 16 h, 10 μM [1] [×10⁻⁶ cm/s] | inhibition at 10 µM (PERK) [%] | pIC50 (GCN2)
CNc1ncc2c(F)c(-c3c(C)ccc(C(=O)c4c(-c5ccccc5)n(C)n(-c5ccccc5)c4=O)c3N)ccc2n1 [4-{2-amino-3-[5-fluoro-2-(methylamino)quinazolin-6-yl]-4-methylbenzoyl}-1-methyl-2,5-diphenyl-1,2-dihydro-3H-pyrazol-3-one] |  |  |  |  |  |  |  |  | 7.44
CCOc1ccc(-n2nnc3cnc(Nc4cnn(C5CCOCC5)c4)nc32)cc1 [Compound 3, 3-(4-Ethoxyphenyl)-N-(1-(tetrahydro-2H-pyran-4-yl)-1H-pyrazol-4-yl)-3H-[1,2,3]triazolo[4,5-d]pyrimidin-5-amine] | 7.35 | 25 |  |  |  |  |  |  | 
Fc1cc(-n2nnc3cnc(Nc4cnn(C5CCOCC5)c4)nc32)ccc1Cl [Compound 4, 3-(4-Chloro-3-fluorophenyl)-N-(1-(tetrahydro-2H-pyran-4-yl)-1H-pyrazol-4-yl)-3H-[1,2,3]triazolo[4,5-d]pyrimidin-5-amine] | 7.59 | < 10 | < 10 | 18 | 96 | 0.05 (≈ 0.0207 µg/mL) | 2.19 |  | 
COC(=O)c1ccc(-n2nnc3cnc(Nc4cnn([C@H]5CC[C@H](O)CC5)c4)nc32)cc1 [Compound 9, methyl 4-(5-((1-(trans-4-hydroxycyclohexyl)-1H-pyrazol-4-yl)amino)-3H-[1,2,3]triazolo[4,5-d]pyrimidin-3-yl)benzoate] | 7.33 | 14 | < 10 | 24 | 95 | 0.17 (≈ 0.0739 µg/mL) | 2.29 |  | 
Cc1cccc(CC(=O)N2CCc3c2ccc(-c2cn(C)c4ncnc(N)c24)c3F)n1 [GSK2656157, reference compound] | < 5.00 |  |  |  |  |  |  | 100 | 

Further molecules by rising pIC50 (human GCN2), results first:

pIC50 (human GCN2) | inhibition at 10 µM (PERK; 10 μM compound, 10 μM ATP) [%] | inhibition at 10 µM (HRI) [%] | inhibition at 10 µM (IRE1) [%] | inhibition at 10 µM (PKR) [%] | solubility at 2 h (Kinetic solubility assay) [µM] | Papp at 16 h, 10 μM [1] [×10⁻⁶ cm/s] | inhibition at 10 µM (PERK) [%] | Compound | pIC50 (GCN2)
7.65 | 24 |  |  |  |  |  |  | CCOc1ccc(-n2nnc3cnc(Nc4cnn([C@H]5CC[C@H](O)CC5)c4)nc32)cc1 [Compound 7, trans-4-(4-((3-(4-Ethoxyphenyl)-3H-[1,2,3]triazolo[4,5-d]pyrimidin-5-yl)amino)-1H-pyrazol-1-yl)cyclohexan-1-ol] | 
7.68 | < 10 | < 10 | 15 | 98 | 0.1 (≈ 0.0429 µg/mL) | 4.68 |  | O[C@H]1CC[C@H](n2cc(Nc3ncc4nnn(-c5ccc(Cl)c(F)c5)c4n3)cn2)CC1 [Compound 8, trans-4-(4-((3-(4-chloro-3-fluorophenyl)-3H-[1,2,3]triazolo[4,5-d]pyrimidin-5-yl)amino)-1H-pyrazol-1-yl)cyclohexan-1-ol] | 
7.69 | 35 |  |  |  |  |  |  | c1nn(C2CCOCC2)cc1Nc1ncc2nnn(-c3ccc4cn[nH]c4c3)c2n1 [Compound 6, 3-(1H-Indazol-6-yl)-N-(1-(tetrahydro-2H-pyran-4-yl)-1H-pyrazol-4-yl)-3H-[1,2,3]triazolo[4,5-d]pyrimidin-5-amine] | 
7.76 | < 10 | < 10 | 22 | 96 | 0.2 (≈ 0.0841 µg/mL) | 10.5 |  | COC(=O)c1ccc(-n2nnc3cnc(Nc4cnn(C5CCOCC5)c4)nc32)cc1 [Compound 5, Methyl 4-(5-((1-(tetrahydro-2H-pyran-4-yl)-1H-pyrazol-4-yl)amino)-3H-[1,2,3]triazolo[4,5-d]pyrimidin-3-yl)benzoate] | 
